Experimental findings from US20200017449A1, “HYDANTOINS THAT MODULATE BACE-MEDIATED APP PROCESSING” (Buck Institute for Research on Aging, priority 2013, published 2020) are described below.

The target in one assay is T1, BACE1 (Homo sapiens, UniProt P56817).
T1 construct: purchased R&D 931-AS-050
Description: BACE1 P5-P5′ fluorescence substrate assay (APP-BACE1 IC50). Format: biochemical. Particulars: Table 1; read-out: BACE IC50. The method, then:
In one illustrative embodiment, an MBP-C125 APP695 wt fusion protein can be used as one of the substrates and the second substrate can be the commercially available P5-P5′ fluorescence substrate.
Briefly, 0.01 units of BACE1 were incubated for 1 h at room temperature with a BACE inhibitor, then the substrate was added to each well and the fluorescence was read immediately and every 30 min for 2 h. Activity was determine by dividing the fluorescence at a specific [BACE inhibitor] by the fluorescence at [BACE inhibitor]=0 μM, the % activity was plotted vs log[BACE inhibitor] to determine the APP-BACE1 using GraphPad Prism 5 (FIG. 6A)

For a further assay, the system named is Aβ42. Description: Aβ lowering in brain uptake animals. It counts as in vivo. Particulars: NTg mice. The protocol:
Compound 2 and other hydantoins were produced (see, e.g., compounds 1-5 pharmacokinetic evaluation of these hydantoins was determined in brain uptake assays using NTg mice (see, e.g., Table 1). It was also determined that Compound 1 lowered Aβ42 in the same animals at 5 mpk, while compound 3 lowered Aβ at 1 mpk.

The target in the next assay is T2, TRX-eAPP575-624 (Homo sapiens, UniProt P05067).
T2 construct: residues 575-624 of the APP ectodomain; made in house
T2 sequence (P05067 650-699): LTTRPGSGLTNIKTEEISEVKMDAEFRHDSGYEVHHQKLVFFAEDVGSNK
Description: SPR (Biacore) binding to ectodomain of APP. The protocol:
The binding affinity of the compounds for the ectodomain of APP was determined using SPR. […] The eAPP was crosslinked linked to the CM5 Biacore chips (GE Healthcare).
FC1 served as a reference cell following a mock immobilization with buffer alone. For all cells, the flow rate was 10 μl per min. The chip was blocked with 1M ethanolamine (pH 8.5). […] Binding traces were recorded for each dilution with a binding phase of 60 seconds and a dissociation phase of 240 seconds. Each cycle was performed at 20° C. with a constant flow rate of 20 μl/min. An additional 240 seconds of buffer flow at 60 μl per min across the cells was applied as a regeneration phase to facilitate complete dissociation of the compound from the protein. The sensograms were obtained by subtraction of the reference and buffer signals using the Biacore T100 Evaluation software. The binding curves were modeled with the PRISM (Graphpad Inc).
For orientation: Surface plasmon resonance follows binding to a sensor surface in real time, without labels.

The subject of assay [1] is Aβ1-42 in SH-SY5Y neuroblastoma cells. The experiment in a line: Aβ1-42 in SH-SY5Y cells (ELISA). Format: cell-based, human. The following applies: FIG. 5. The protocol: SH-SY5Y neuroblastoma cells were seeded at 50,000 cells/well in a 96 wells plate for 24 h. Then their medium was changed for fresh medium supplemented with desired concentration of the hydantoin compound (e.g. compound 3). After 24 h, 20 μl of the medium was added to 2 μl of the complete protease inhibitor with 1 μM EDTA and kept at 4° C. until analysis using the ELISA assay below.
ELISA kits from Invitrogen were also used to quantify Aβ1-42 (KHB3544) in duplicate. For the Aβ1-42 ultrasensitive ELISA, samples were diluted 1:2 (50 μl CSF plus 50 μl kit-provided standard diluent buffer). Assays were performed according to manufacturer's instructions. In short, standards and samples were added to a plate pre-coated with a monoclonal capture antibody specific for the amino terminus of Hu Aβ. The samples were co-incubated with a rabbit detection antibody (Ab) specific for the carboxy terminus of the Aβ species being assayed for 3 hr at room temperature overnight at 4°(Aβ1-42) with gentle rocking. After washing, bound rabbit Ab was detected using a horseradish peroxidase-labeled anti-rabbit secondary Ab. After washing again, bound HRP-anti rabbit Ab was detected colorimetrically (Spectramax 190, Molecular Devices) by the addition of a substrate solution. […]

The mark [2] stands for this setting: Table 1, SPR, read-out: APP binding Kd.

The structures appear in SMILES notation. Read-outs that look alike come from different tables or passages of the source.

T1 sequence (P56817 46-501): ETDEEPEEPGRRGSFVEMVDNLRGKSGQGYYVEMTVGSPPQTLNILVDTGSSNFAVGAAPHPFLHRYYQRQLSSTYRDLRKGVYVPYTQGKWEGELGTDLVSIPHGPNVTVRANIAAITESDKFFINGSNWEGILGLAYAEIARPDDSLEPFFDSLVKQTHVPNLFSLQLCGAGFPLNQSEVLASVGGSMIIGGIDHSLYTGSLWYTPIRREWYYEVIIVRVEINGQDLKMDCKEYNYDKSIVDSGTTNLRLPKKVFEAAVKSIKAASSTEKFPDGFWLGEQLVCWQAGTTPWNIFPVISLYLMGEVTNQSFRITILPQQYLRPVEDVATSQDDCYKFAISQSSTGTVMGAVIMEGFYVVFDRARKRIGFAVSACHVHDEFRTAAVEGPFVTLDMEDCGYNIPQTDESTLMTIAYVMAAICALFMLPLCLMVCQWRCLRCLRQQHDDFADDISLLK

Consider `CN1C(=O)C(c2ccccc2)(c2cc(F)cc(F)c2)N=C1N` (stereo not drawn) [FAH-1], for which the IC50 at BACE1 turned out to be 3 µM. For the same compound, the “lowering of Aβ42 in vivo” value in the assay with Aβ42 (5 mpk) is reported as “lowered Aβ42”.
`CN1C(=O)C(c2ccc(OC(F)F)cc2)(c2cc(F)cc(F)c2)N=C1N` (stereo not drawn) [FAH-2, 2-amino-4-(4-(difluoromethoxy)phenyl)-4-(3,5-difluorophenyl)-1-methyl-1H-imidazol-5(4H)-one]: on BACE1, the IC50 turned out to be 2 µM. For the same compound, the Kd at TRX-eAPP575-624 (setting [2]) was found to be 8 µM.
Regarding `Cc1cc(C2(c3cc(F)cc(F)c3)N=C(N)N(C)C2=O)ccc1OC(F)F` (stereo not drawn) [FAH-3, 2-amino-4-(4-(difluoromethoxy)-3-methylphenyl)-4-(3,5-difluorophenyl)-1-methyl-1H-imidazol-5(4H)-one], the IC50 on BACE1 was found to be 0.52 µM. For the same compound, the “binding to eAPP (qualitative)” value on TRX-eAPP575-624 (SPR / BiaCore, FIG. 4) is recorded as “binding to eAPP575-624”. In addition, the “lowering of Aβ in vivo” value with Aβ42 (1 mpk) is “lowered Aβ”. Also, the “inhibition of Aβ production” value in assay [1] is reported as “inhibition of Aβ production”.
As to `CN1C(=O)C(c2cc(F)cc(F)c2)(c2cccc(OC(F)F)c2)N=C1N` (stereo not drawn) [FAH-4, 2-amino-4-(3-(difluoromethoxy)phenyl)-4-(3,5-difluorophenyl)-1-methyl-1H-imidazol-5(4H)-one], the IC50 on BACE1 was found to be 2.1 µM.
On to `Cc1cc(C)cc(C2(c3cc(F)cc(F)c3)N=C(N)N(C)C2=O)c1` (stereo not drawn) [FAH-5, 2-amino-4-(3,5-difluorophenyl)-4-(3,5-dimethylphenyl)-1-methyl-1H-imidazol-5(4H)-one], for which the IC50 at BACE1 is 5 µM.
Take `Cc1cc(C2(c3cccc(F)c3)N=C(N)N(C)C2=O)ccc1OC(F)F` (stereo not drawn) [FAH-17, 2-amino-4-(4-(difluoromethoxy)-3-methylphenyl)-4-(3-fluorophenyl)-1-methyl-1H-imidazol-5(4H)-one]: the Kd on TRX-eAPP575-624 (setting [2]) is less than 1 µM; at TRX-eAPP575-624 (Table 5, Secondary Screen, read-out: APP Kd), less than 1 µM.

What is called IC50 is the midpoint of a concentration-inhibition curve.
